Source: patent US9737552B2, “Treatment of cognitive impairment in a subject with a neurological autoimmune disease” (The Johns Hopkins University, priority 2010, dated 2017)
Read-outs that look alike come from different tables or passages of the source.

Legend:
[1] = Mass spectrometry of 2-PMPA concentration in post-mortem brains of EAE mice; type: in vivo; conditions: mouse, ip, Mean±SEM, 100 mg/kg daily i.p., sacrifice 50 days after immunization
Experimental: (§1) To determine whether GCPII inhibition altered the levels of the enzyme's substrate (NAAG) or product (NAA), mass spectrometry was conducted in post-mortem brains of EAE mice either treated with 2-PMPA or a vehicle control. Animals were sacrificed by cervical dislocation 50 days after EAE immunization. Hippocampus, frontal lobe, and cerebellum structures were dissected, and NAA, NAAG, and 2-PMPA concentrations were measured via mass spectrometry. Briefly, NAAG and NAA in brain tissue homogenates were separated on a Waters Atlantis ODS column. NAA, NAAG, and the internal standard were monitored by tandem mass spectrometry with electrospray negative ionization. Linear calibration curves were generated over the range of 5-5000 ng/mL and converted to μg/g. For determination of 2-PMPA, separations were achieved on a Waters XTerra MS C18 column. 2-PMPA and the internal standard were monitored by tandem mass spectrometry with electrospray negative ionization. Linear calibration curves were generated over the 1-100 ng/mL range and converted to μg/g.

[2] = tested on: EAE mice; assay: Barnes maze testing in EAE mice; type: in vivo
Experimental: To measure cognitive function in EAE mice, Barnes maze testing was conducted using the immunized mice, beginning approximately 4 weeks post-immunization. […] Animals were trained on the Barnes maze (AccuScan Instruments, Columbus, Ohio) for 4 trials per day (inter-trial interval >30 minutes) for 4 consecutive days. Briefly, mice were placed in the center of the maze platform under an opaque enclosed 3″×5″× container. After 15 seconds the container was removed and the mice were free to move in the maze. A target box was placed under 1 of the 40 holes around the maze perimeter, and the location of the target box, along with the location of 4 equally spaced polarizing visual cues and one lamp, remained the same throughout all trials. Mice were given up to 3 minutes to locate and enter the target box, and were gently guided into the target box if it was not found within the 3 minute limit. Following entry into the target box, the box was covered and the mouse remained in the box for 30 seconds before transfer to a holding cage. Paths were recorded and latency to the target hole, path efficiency, speed, and directional times were calculated using ANY-maze software (Stoelting, Wood Dale, Ill.).

[3] = tested on: EAE mice; assay: Fear conditioning test in EAE mice; type: in vivo
Experimental: To measure fear memory and amygdala function in EAE mice, fear conditioning tests were performed. Following the Barnes maze testing, animals were given 1-2 weeks rest then subjected to fear conditioning. Briefly, animals were placed in a fear conditioning chamber for 240 seconds on 3 consecutive days. On day 1, a 2000 Hz tone was played for 28 seconds (seconds 180-208), immediately followed by a 2 second scrambled footshock (seconds 208-210). On day 2, animals were placed back in the same testing environment, but neither sound nor shock was administered. On days 3 and 5, mice were placed in a novel wooden box inside the fear conditioning chamber, and a 2000 Hz tone was played for 120 seconds (seconds 121-240). The duration of freezing behavior on each day was measured using FreezeScan software (Clever Sys Inc., Reston, Va.).

[4] = tested on: GCPII; assay: Mass spectrometry of NAA and NAAG in post-mortem brains of EAE mice; type: in vivo; conditions: Mean±SEM, 50 days after EAE immunization
Experimental: as §1

[5] = tested on: EAE mice; assay: EAE disease score in MOG35-55 immunized mice; type: in vivo; conditions: 100 mg/kg daily i.p. from immunization until sacrifice; vs Control mice
Experimental: The effects of GCPII inhibition were tested on an animal model of multiple sclerosis (experimental autoimmune encephalomyelitis, or “EAE”). To induce EAE, mice were given two 50 μL subcutaneous flank injections of myelin oligodendrocyte glycoprotein 35-55 peptide fragment (MOG35-55) dissolved in 50 μL PBS emulsified in 50 μL IFA supplemented with 400 μg M. tuberculosis H37Ra, at a final concentration of 100 μg MOG35-55 per 100 μL total volume. At the time of MOG immunization and 2 days later, all EAE mice were administered intraperitoneal injections of 300 ng pertussis toxin in 100 μL PBS. Immunized mice were treated with either 2-PMPA or a vehicle control for the duration of the experiment. Vehicle (50 mM HEPES buffer) or 2-PMPA (100 mg/kg in vehicle at a pH of 7.4) was delivered daily via 0.1 mL intraperitoneal injections from the time of EAE immunization until sacrifice.

[6] = tested on: EAE mice
Experimental: A separate cohort of 2-PMPA and Control EAE mice (n=6-7) were tested on the elevated plus maze 27 days after disease induction. Mice were placed in the center of the maze and given 5 minutes to freely explore the maze. Time spent in open and closed arms of the maze were tracked using ANY-maze software (Stoelting, Wood Dale, Ill.).

For `O=C(O)CCC(CP(=O)(O)O)C(=O)O` (centres unmarked) [2-PMPA, 2-(phosphonomethyl)pentanedioic acid], the concentration at 50 days after EAE immunization ([1]; cerebellum, read-out: 2-PMPA in the cerebellum) was 832 ± 56 ng/g, the concentration at 50 days after EAE immunization ([1]; frontal cortex, read-out: 2-PMPA in the frontal cortex) was 1190 ± 222 ng/g and the concentration at 50 days after EAE immunization ([1]; hippocampus, read-out: 2-PMPA in the hippocampus) was 835 ± 264 ng/g. For the same compound, the “Primary latency, total latency and path efficiency on the first two days of Barnes maze testing” value ([2]; 100 mg/kg daily i.p., vs vehicle) was “equal between groups”, the “Path efficiency, first trial of day 4 compared to baseline (day 1, trial 1)” value ([2]; Mean±SEM, 100 mg/kg daily i.p., p=0.0029 vs Control) was −0.7276±0.0295 and the “Primary latency, first trial of day 4 compared to baseline (day 1, trial 1)” value ([2]; Mean±SEM, 100 mg/kg daily i.p., p=0.0072 vs Control) was 167.4±1.187. The “Total latency, first trial of day 4 compared to baseline (day 1, trial 1)” value ([2]; Mean±SEM, 100 mg/kg daily i.p., p=0.0171 vs Control) was 167.4±1.187, the “Path efficiency, back-to-back trials on consecutive days (long-term memory)” value ([2]; Mean±SEM, e.g. trial 4 of day 3 vs. trial 1 of day 4, p=0.020 vs controls) was −0.1377±0.0937 and the “Total latency, back-to-back trials on consecutive days (long-term memory)” value ([2]; Mean±SEM, e.g. trial 4 of day 3 vs. trial 1 of day 4, p=0.021 vs controls) was 13.14±7.69. The “Maximum speed in the maze” value ([2]; vs control EAE group) was “No differences”, the “Baseline freezing on Day 1” value ([3]; Day 1) was < 20% and the “Cued freezing behavior on Day 3” value ([3]; Day 3, vs control) was “No differences”. The “Cued freezing in response to the 120 second tone on Day 5” value ([3]; Day 5, specifically in the last 60 seconds, vs control) was “increased cued freezing”, the “Contextual freezing on Day 2” value ([3]; Mean±SEM, Day 2, % time freezing (FIG. 5 legend)) was 50.49±4.18 and the “NAAG concentration in the frontal cortex” value ([4]; p=0.0002 vs control) was 32.91 ± 0.93 µg/g. For the same compound, the “NAAG concentration in the cerebellum” value ([4]; p=0.0655 vs control) was 102.4 ± 2.3 µg/g, the “NAA in the hippocampus” value ([4]; p=0.2895 vs control) was 985.0 ± 48.12 µg/g and the “NAA in the frontal cortex” value ([4]; p=0.3035 vs control) was 1134 ± 45.65 µg/g. For the same compound, the “NAA in the cerebellum” value ([4]; p=0.3053 vs control) was 899.3 ± 19.66 µg/g, the “NAAG concentration in the hippocampus” value ([4]; p=0.8575 vs control) was 54.98 ± 2.037 µg/g and the “Disease severity and progression, as measured by EAE disease scores” value [5] was “did not differ”. For the same compound, the “Time spent in the closed arms” value [6] was 224.2±10.07 and the “Time spent in the open arms” value [6] was 34.10±9.22.
